Like-named read-outs stand apart in the source and are kept apart here.

The target of one series is T1, human ATGL (Homo sapiens, UniProt Q96AD5).
T1 construct: made in house; host or cells: Expi cells (lysate, not purified)
T1 sequence (Q96AD5 1-504): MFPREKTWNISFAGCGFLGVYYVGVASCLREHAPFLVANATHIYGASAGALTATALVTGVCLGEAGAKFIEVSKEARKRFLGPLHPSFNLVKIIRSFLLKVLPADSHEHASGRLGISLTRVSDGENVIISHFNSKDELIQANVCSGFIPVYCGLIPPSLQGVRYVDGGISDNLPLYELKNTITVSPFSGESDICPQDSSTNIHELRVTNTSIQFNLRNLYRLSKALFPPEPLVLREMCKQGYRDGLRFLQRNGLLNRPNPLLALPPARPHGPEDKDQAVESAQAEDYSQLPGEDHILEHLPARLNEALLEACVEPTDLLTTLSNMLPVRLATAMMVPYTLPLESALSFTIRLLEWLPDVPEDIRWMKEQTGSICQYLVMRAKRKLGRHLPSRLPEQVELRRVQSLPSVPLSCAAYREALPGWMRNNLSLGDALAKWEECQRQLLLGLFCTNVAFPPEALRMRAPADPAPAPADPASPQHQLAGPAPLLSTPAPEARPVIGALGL
The series can be described thus: TG hydrolase activity, Expi cell lysates expressing human ATGL + CGI-58, radiolabelled triolein. In kind it is biochemical. Put shortly:
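Lysates of Expi cells expressing ATGL, supplemented with purified CGI-58 and inhibitor in DMSO, incubated 1 h at 37 °C with emulsified radiolabelled triolein (330 μM) in potassium phosphate pH 7.0 with 5% FA-free BSA. Released FA counted by liquid scintillation after phase extraction; IC50 versus DMSO control, duplicates.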

The target in the next series is T2, murine ATGL (Mus musculus, UniProt Q8BJ56).
T2 construct: made in house; host or cells: Expi cells (lysate)
T2 sequence (Q8BJ56 1-486): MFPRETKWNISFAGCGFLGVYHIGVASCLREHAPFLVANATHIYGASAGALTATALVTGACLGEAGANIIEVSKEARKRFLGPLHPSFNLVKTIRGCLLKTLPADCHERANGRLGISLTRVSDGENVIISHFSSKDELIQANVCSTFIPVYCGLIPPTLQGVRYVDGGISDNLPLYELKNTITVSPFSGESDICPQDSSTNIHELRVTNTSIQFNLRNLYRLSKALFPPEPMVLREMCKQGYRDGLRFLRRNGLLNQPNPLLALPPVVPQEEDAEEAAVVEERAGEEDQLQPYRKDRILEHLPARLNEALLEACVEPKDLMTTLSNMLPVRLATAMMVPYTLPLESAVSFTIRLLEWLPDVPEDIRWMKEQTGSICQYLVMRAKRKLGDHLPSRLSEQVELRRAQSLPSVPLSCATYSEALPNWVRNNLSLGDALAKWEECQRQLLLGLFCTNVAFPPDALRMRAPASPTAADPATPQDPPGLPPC
The series can be described thus: TG hydrolase activity, Expi lysates expressing mouse ATGL + CGI-58, radiolabelled triolein. As to conditions: 50 μM compound; Example 237; read-out: Inhibition of murine ATGL at 50 μM − mean [%]. In kind it is biochemical. Put shortly:
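Lysates of Expi cells overexpressing mouse ATGL, with added recombinant CGI-58, were incubated with inhibitor at 50 μM. Substrate was emulsified radiolabelled triolein with PC/PI in 100 mM potassium phosphate pH 7.0 and 5% FA-free BSA, 1 h at 37° C. Released FA were extracted and counted by scintillation; triplicates, DMSO control.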

The mark [1] stands for this setting: Example 237, read-out: Inhibition of human ATGL − IC50.
Setting [2] is: Example 238, read-out: Inhibition of human ATGL IC50.

Consider `CCCCOC(=O)c1cccc(-c2ccc(OCC)cc2)n1` [Example 2], for which the melting point (as a rule, the temperature of the solid-liquid transition) was 78 to 81 °C. Besides, on human ATGL (setting [1]), the IC50 (commonly the point on the concentration scale where inhibition reaches its midpoint) amounted to 20 µM. In addition, at murine ATGL, the inhibition (usually the change of the read-out against control, counted positive when it falls) at 50 µM was 5.9%.
In the same order, the values of `CCOC(=O)c1cccc(-c2ccc(OCCOC)cc2)n1` [Example 8] are 89 to 94 °C, 10 µM and 9.1%.
`COCCOc1ccc(-c2cccc(C(=O)OC(C)C)n2)cc1` [Example 11] registered a melting point of 75 to 77 °C. At human ATGL (setting [1]), the IC50 turned out to be 5 µM. Besides, at murine ATGL, the inhibition at 50 µM is 1.8%.
In the same order, the values of `CC(C)OC(=O)c1cccc(-c2ccc(CO)cc2)n1` [Example 12] are 129 to 131 °C, 25 µM and 0%.
In turn, `CCOC(=O)c1cc(C)cc(-c2ccc(OCC)cc2)n1` [Example 14] displayed a melting point of 90 to 91 °C. For the same molecule, on human ATGL (setting [1]), the IC50 came out at 10 µM. Besides, the inhibition at 50 µM on murine ATGL was determined as 6.1%.
`COCCOCCOc1ccc(-c2cccc(C(=O)OC(C)C)n2)cc1` [Example 15] returned a melting point of 45 to 46 °C. The IC50 at human ATGL (setting [1]) was found to be 6 µM. On murine ATGL, the inhibition at 50 µM was found to be 0%.
For the molecule `CCOCCOc1ccc(-c2cccc(C(=O)OC(C)C)n2)cc1` [Example 16], the melting point was 46 to 47 °C. Moreover, the IC50 on human ATGL (setting [1]) is 3 µM. For the same molecule, on murine ATGL, the inhibition at 50 µM amounted to 18.1%.
With `CCS(=O)(=O)c1ccc(-c2cccc(C(=O)OC(C)C)n2)cc1` [Example 18], the melting point lay in the range of 126 to 129 °C. Further, the IC50 on human ATGL (setting [1]) is 10 µM. The inhibition at 50 µM at murine ATGL was 0%.
The molecule `COCc1ccc(-c2cccc(C(=O)OC(C)C)n2)cc1` [Example 19] registered a melting point of 55 to 58 °C. Moreover, the IC50 at human ATGL (setting [1]) was 3 µM. In addition, the inhibition at 50 µM on murine ATGL came to 3.9%.
As for `CCOc1ccc(-c2cc(C)cc(C(=O)OC(C)C)n2)cc1` [Example 20], the melting point was in the range of 85 to 88 °C. The IC50 at human ATGL (values of text and figure legend, read-out: IC50 on human ATGL (hATGL)) worked out at 4 µM.
Molecule `CCOc1ccc(-c2cccc(C(=O)OC3CC3)n2)cc1` [Example 21] came in with a melting point of 114 to 115 °C. Further, at human ATGL (setting [1]), the concentration for half-maximal inhibition (IC50) was found to be 5 µM. The inhibition at 50 µM at murine ATGL came to 0%.
On to `CC(=O)Oc1ccc(-c2cccc(C(=O)OC(C)C)n2)cc1` [Example 23], for which the melting point lay within 71 to 75 °C. Moreover, at human ATGL (setting [1]), the IC50 came to 15 µM. Besides, the inhibition at 50 µM on murine ATGL turned out to be 16%.
The matching figures for `CCOc1ccc(-c2cc(OC)cc(C(=O)OC)n2)cc1` [Example 26]: 94 to 103 °C, 12 µM and 23.1%.
The matching figures for `CCCOc1ccc(-c2cccc(C(=O)OC(C)C)n2)cc1` [Example 27]: 90 to 93 °C, 3 µM and 0%.
In the same order, the values of `CCOc1ccc(-c2cccc(C(=O)OC(C)(C)C)n2)cc1` [Example 28] are 69 to 73 °C, 12 µM and 0%.
`CCOC(=O)c1ccc(-c2cccc(C(=O)OC(C)C)n2)cc1` [Example 29] had a melting point of 56 to 62 °C. The IC50 at human ATGL (setting [1]) was found to be 6 µM. For the same molecule, on murine ATGL, the inhibition at 50 µM came to 0%.
In turn, `CCOc1ccc(-c2cccc(C(=O)OC(C)CC)n2)cc1` (stereo not shown) [Example 30] showed a melting point of 49 to 51 °C. Besides, the IC50 at human ATGL (setting [1]) amounted to 8 µM. For the same molecule, on murine ATGL, the inhibition at 50 µM came to 0%.
Turning to `CCCOC(=O)c1cccc(-c2ccc(OCC)cc2)n1` [Example 31], the melting point is 80 to 84 °C. Moreover, at human ATGL (setting [1]), the IC50 is 12 µM. On murine ATGL, the inhibition at 50 µM came out at 6%.
In the same order, the values of `C=CCOC(=O)c1cccc(-c2ccc(OCC)cc2)n1` [Example 32] are 65 to 70 °C, 6 µM and 18.6%.
The matching figures for `CC(C)OC(=O)c1cccc(-c2ccc(OC3CCCCO3)cc2)n1` (stereo not shown) [Example 36]: 105 to 107 °C, 8 µM and 9.6%.
On to `COCc1ccc(-c2cc(OC)cc(C(=O)OC)n2)cc1` [Example 40], for which the melting point was 65 to 68 °C. The IC50 at human ATGL (setting [1]) worked out at 10 µM.
The matching figures for `CCOC(=O)c1cccc(-c2ccc(-c3ccccn3)cc2)n1` [Example 48]: 130 to 132 °C and 25 µM.
Molecule `CCOC(=O)c1cccc(-c2ccc(-c3cccnc3)cc2)n1` [Example 49] gave a melting point of 84 to 104 °C. Also, the half-inhibitory concentration (IC50) at human ATGL (setting [1]) is 20 µM.
For `CCCOc1ccc(-c2cc(OC)cc(C(=O)OC(C)C)n2)cc1` [Example 59], the melting point lay in the range of 79 to 81 °C. In addition, the IC50 on human ATGL (setting [1]) was 3 µM.
In the same order, the values of `CC(C)OC(=O)c1cccc(-c2ccc(C#Cc3ccccc3)cc2)n1` [Example 63] are 136 to 143 °C and 6 µM.
`CCSc1ccc(-c2cccc(C(=O)OC(C)C)n2)cc1` [Example 64] had a melting point of 93 to 96 °C. Also, the IC50 at human ATGL (setting [1]) was determined as 6 µM.
Regarding `COc1cc(C(=O)OC(C)C)nc(-c2ccc(-c3cccnc3)cc2)c1` [Example 65], the melting point lay in the range of 118 to 121 °C. Moreover, at human ATGL (setting [1]), the IC50 came to 6 µM.
In the same order, the values of `CCCc1ccc(-c2cccc(C(=O)OCC)n2)cc1` [Example 66] are 68 to 69 °C and 10 µM.
As to `CC(C)OC(=O)c1cccc(-c2ccc(CCc3ccccc3)cc2)n1` [Example 67], the melting point was 88 to 89 °C. Also, on human ATGL (setting [1]), the IC50 stood at 2 µM.
The matching figures for `C#C[C@@H](C)OC(=O)c1cccc(-c2ccc(CCC)cc2)n1` [Example 71]: 112 to 113 °C and 2 µM.
The matching figures for `CCOc1ccc(-c2cccc(C(=O)OC/C=C/c3ccccc3)n2)cc1` [Example 73]: 110 °C and 3 µM.
The matching figures for `CSc1ccc(-c2cccc(C(=O)OC(C)C)n2)cc1` [Example 90]: 60 to 61 °C and 3 µM.
As to `COc1ccc(C#Cc2ccc(-c3cccc(C(=O)OC(C)C)n3)cc2)cc1` [Example 92], the melting point fell in the range of 152 to 155 °C. The IC50 on human ATGL (setting [1]) stood at 3 µM.
In the same order, the values of `CC(C)COc1ccc(-c2cccc(C(=O)OC(C)C)n2)cc1` [Example 96] are 103 to 107 °C and 10 µM.
`CCC(C)OC(=O)c1cc(OC)cc(-c2ccc(OC(C)C)cc2)n1` (stereo not shown) [Example 202, sec-Butyl 6-(4-Isopropoxyphenyl)-4-methoxypicolinate] displayed a melting point of 68 °C. In addition, the IC50 on human ATGL (setting [2]) came out at 3 µM.
The matching figures for `COc1cc(C(=O)OC2CCC2)nc(-c2ccc(OC(C)C)cc2)c1` [Example 203, Cyclobutyl 6-(4-isopropoxyphenyl)-4-methoxypicolinate]: 116 to 118 °C and 10 µM.
With `[2H]C([2H])([2H])C([2H])(OC(=O)c1cc(OC)cc(-c2ccc(OC(C)C)cc2)n1)C([2H])([2H])[2H]` [Example 204, Propan-2-yl-d7 6-(4-isopropoxyphenyl)-4-methoxypicolinate], the melting point was in the range of 70 to 72 °C. Besides, the IC50 on human ATGL (setting [2]) was 1 µM.
Regarding `CCc1ccc(-c2cc(OC)cc(C(=O)OC(C)C)n2)cc1` [Example 205, Isopropyl 6-(4-ethylphenyl)-4-methoxypicolinate], the melting point was 51 °C. At human ATGL (setting [2]), the IC50 turned out to be 3 µM.
For the molecule `COc1ccc(-c2cc(OC)cc(C(=O)OC(C)C)n2)cc1` [Example 206, Isopropyl 4-methoxy-6-(4-methoxyphenyl)picolinate], the melting point was 59 to 61 °C. Also, at human ATGL (setting [2]), the IC50 stood at 5 µM.
